For one data set, the system named is quinone reductase (QR) in Hepa 1c1c7 murine hepatoma cells. The data set is described as follows: Induction of QR (inducer potency, CD value) in Hepa 1c1c7 murine hepatoma cells. It is filed as cell-based. Particulars: 8.9 mg isolated after HPLC/TLC/HPLC.
Description: Assay of Inducer Potency. Inducer activity was measured in Hepa 1c1c7 murine hepatoma cells grown in 96-well microtiter plates (Prochaska and Santamaria, Anal. Biochem. 169:328-336 (1988); Prochaska et al., Proc. Natl. Acad. Sciences USA 89:2394-2398 (1992)). QR activity (based on the formation of the blue-brown reduced tetrazolium dye) was measured with an optical microtiter plate scanner in cell lysates prepared in one plate, and the cell density was determined in the second plate by staining with crystal violet. Quantitative information on specific activity of QR, the inducer potency, and the cytotoxicity of the extract or compound tested is obtained by computer analysis of the absorbances. One unit of inducer activity is defined as the amount that when added to a single microtiter well doubled the QR specific activity. The CD value is the concentration of a compound required to double the quinone reductase specific activity in Hepa 1c1c7 murine hepatoma cells.
Each of the analogs of sulforaphane was tested for the ability to induce QR in murine hepatoma cells by the assay described in Example 1.
Analogs were synthesized and tested in the hepatoma cell assay described in Example 1.
In the case of `C[S@@+]([O-])CCCCN=C=S` [(R)-sulforaphane], the inducer activity is 558,000 inducer units.

Still in this data set, the particulars now being: Mus musculus, Hepa-1c1c7, Table 3; QR induction, hepatoma cell assay of Example 1; read-out: CD.
Regarding `C[S+]([O-])CCCCN=C=S` (stereo not shown) [GHP 1005], the EC (2-fold QR specific activity) was found to be 0.2 µM.

The data set is the same for the next values; noted with them: Mus musculus, Hepa-1c1c7, read-out: CD value, Table 1; QR induction, Hepa 1c1c7 cells.
On to `C[S+]([O-])CCCCCN=C=S` (stereo not shown) [Alyssin], for which the EC (2-fold QR specific activity) worked out at 0.95 µM.

On to `CSCCCCCN=C=S` [Berteroin], for which the EC (2-fold QR specific activity) stood at 1.7 µM.

In the case of `CS(=O)(=O)CCCN=C=S` [Cheirolin], the EC (2-fold QR specific activity) was determined as 1.3 µM.

Turning to `CS(=O)(=O)CCCCCN=C=S` [GHP 1003, 1-isothiocyanato-5-methylsulfonylpentane], the EC (2-fold QR specific activity) amounted to 0.98 µM.

With `C[S+]([O-])CCCN=C=S` (stereo not shown) [Iberin], the EC (2-fold QR specific activity) is 2.4 µM.

In the case of `CSCCCN=C=S` [Iberverin], the EC (2-fold QR specific activity) stood at 3.5 µM.

Still in this data set, the particulars now being: Mus musculus, Hepa-1c1c7, read-out: CD, Table 3; QR induction, hepatoma cell assay of Example 1.
Consider `CS(=O)(=O)[C@@H]1CCC[C@@H](CN=C=S)C1` (relative stereo) [GHP 1079, cis- or trans-3-(methylsulfonyl)cyclohexylmethylisothiocyanate], for which the EC (2-fold QR specific activity) stood at 0.48 µM.

For the compound `CS(=O)(=O)[C@@H]1CCC[C@H](CN=C=S)C1` (relative stereo) [GHP 1080, cis- or trans-3-(methylsulfonyl)cyclohexylmethylisothiocyanate], the EC (2-fold QR specific activity) is 0.41 µM.

Regarding `CSCCCCCN=C=S` [GHP 1001], the EC (2-fold QR specific activity) was found to be 1.71 µM.

As for `C[S+]([O-])CCCCCN=C=S` (stereo not shown) [GHP 1002], the EC (2-fold QR specific activity) was determined as 0.94 µM.

Turning to `CS(=O)(=O)CCCCCN=C=S` [GHP 1003, 1-isothiocyanato-5-methylsulfonylpentane], the EC (2-fold QR specific activity) came out at 0.98 µM.

Regarding `S=C=NCCCCCSSCCCCCN=C=S` [GHP 1004], the EC (2-fold QR specific activity) worked out at 0.83 µM.

For the compound `CS(=O)(=O)CCCCN=C=S` [GHP 1007], the EC (2-fold QR specific activity) was 0.82 µM.

Consider `CSCCCN=C=S` [GHP 1008], for which the EC (2-fold QR specific activity) is 3.52 µM.

For `C[S+]([O-])CCCN=C=S` (stereo not shown) [GHP 1009], the EC (2-fold QR specific activity) was found to be 2.36 µM.

For the compound `CS(=O)(=O)CCCN=C=S` [GHP 1010], the EC (2-fold QR specific activity) amounted to 1.32 µM.

As for `CSCc1ccccc1CN=C=S` [GHP 1021], the EC (2-fold QR specific activity) is 4.3 µM.

As for `CSc1ccccc1CCN=C=S` [GHP 1022], the EC (2-fold QR specific activity) turned out to be 7.4 µM.

Consider `CSCCc1ccccc1N=C=S` [GHP 1023], for which the EC (2-fold QR specific activity) turned out to be 100 µM.

Turning to `COc1ccccc1N=C=S` [GHP 1031], the EC (2-fold QR specific activity) amounted to 100 µM.

Turning to `S=C=Nc1ccccc1Cl` [GHP 1032], the EC (2-fold QR specific activity) came out at 100 µM.

As for `NC(=O)c1ccc(N=C=S)cc1` [GHP 1033], the EC (2-fold QR specific activity) was 100 µM.

`COc1ccccc1CN=C=S` [GHP 1041]: the EC (2-fold QR specific activity) came to 2.41 µM.

With `COc1cccc(CN=C=S)c1` [GHP 1042], the EC (2-fold QR specific activity) amounted to 8.65 µM.

Consider `COc1ccc(CN=C=S)cc1` [GHP 1043], for which the EC (2-fold QR specific activity) was 25 µM.

As to `COc1cccc(OC)c1CN=C=S` [GHP 1044], the EC (2-fold QR specific activity) was 5.8 µM.

As to `CN(C)c1ccccc1CN=C=S` [GHP 1045], the EC (2-fold QR specific activity) turned out to be 12.5 µM.

As for `CSc1ccccc1CN=C=S` [GHP 1046], the EC (2-fold QR specific activity) amounted to 6.8 µM.

Take `Fc1ccccc1CN=C=S` [GHP 1047]: the EC (2-fold QR specific activity) is 13.1 µM.

Consider `S=C=NCc1ccccc1Cl` [GHP 1048], for which the EC (2-fold QR specific activity) is 14.1 µM.

As to `S=C=NCc1ccccc1Br` [GHP 1049], the EC (2-fold QR specific activity) was 12.5 µM.

For `Cc1ccccc1CN=C=S` [GHP 1050], the EC (2-fold QR specific activity) is 3.7 µM.

For the compound `CCOc1ccccc1CN=C=S` [GHP 1051], the EC (2-fold QR specific activity) was 2.5 µM.

Turning to `S=C=NC1CCc2ccccc21` (stereo not shown) [GHP 1052], the EC (2-fold QR specific activity) is 38.9 µM.

With `CCc1ccccc1CN=C=S` [GHP 1053], the EC (2-fold QR specific activity) is 12.5 µM.

On to `CCOC(=O)CN=C=S` [GHP 1061], for which the EC (2-fold QR specific activity) is 8.2 µM.

With `CS(=O)(=O)c1ccc(CN=C=S)cc1` [GHP 1062], the EC (2-fold QR specific activity) is 1.2 µM.

For `CS(=O)(=O)C1CC2CC1CC2N=C=S` (stereo not shown) [GHP 1063], the EC (2-fold QR specific activity) came out at 1.02 µM.

For `CC(=O)C1CC2CC1CC2N=C=S` (stereo not shown) [GHP 1065], the EC (2-fold QR specific activity) was 0.77 µM.

As for `CC(=O)C1CC2CC(N=C=S)C1C2` (stereo not drawn) [GHP 1066, exo-2-acetyl-6-isothiocyanatonorbornane], the EC (2-fold QR specific activity) was 0.26 µM.

Regarding `CS(=O)(=O)C1CC2CC(N=C=S)C1C2` (stereo not drawn) [GHP 1068, exo-2-isothiocyanato-6-methylsulfonylnorbornane], the EC (2-fold QR specific activity) was 0.15 µM.

Consider `COC(=O)C1CC2CC1CC2N=C=S` (stereo not shown) [GHP 1069], for which the EC (2-fold QR specific activity) came out at 0.68 µM.

With `COC(=O)C1CC2CC(N=C=S)C1C2` (stereo not shown) [GHP 1070], the EC (2-fold QR specific activity) came to 1.6 µM.

Turning to `N#CC1CC2CC1CC2N=C=S` (stereo not shown) [GHP 1071], the EC (2-fold QR specific activity) turned out to be 0.59 µM.

For the compound `O=[N+]([O-])C1CC2CC1CC2N=C=S` (stereo not shown) [GHP 1072], the EC (2-fold QR specific activity) turned out to be 1.05 µM.

On to `CS(=O)(=O)[C@H]1CC[C@@H](N=C=S)CC1` [GHP 1073, cis-1-isothiocyanate-4-methylsulfonylcyclohexane], for which the EC (2-fold QR specific activity) was 0.44 µM.

For `CCOC(=O)C(CCS(C)(=O)=O)N=C=S` (stereo not shown) [GHP 1074], the EC (2-fold QR specific activity) is 2.64 µM.

Consider `CC(O)C1CC2CC1CC2N=C=S` (stereo not drawn) [GHP 1075, exo-2-(1'-hydroxyethyl)-5-isothiocyanatonorbornane], for which the EC (2-fold QR specific activity) was 0.45 µM.

For the compound `OC1CC2CC1CC2N=C=S` (stereo not shown) [GHP 1077], the EC (2-fold QR specific activity) turned out to be 1.85 µM.

Take `CP(C)(=O)CCCCN=C=S` [GHP 1078, 1-isothiocyanato-4-dimethylphosphonyl-butane]: the EC (2-fold QR specific activity) stood at 0.43 µM.

As to `CCCCC(=O)CCCCN=C=S` [GHP 1081], the EC (2-fold QR specific activity) is 2 µM.

As for `N#CCCCCN=C=S` [GHP 1101], the EC (2-fold QR specific activity) worked out at 1.97 µM.

Regarding `COC(=O)CCCCN=C=S` [GHP 1102], the EC (2-fold QR specific activity) was found to be 2.81 µM.

In the case of `O=C(O)CCCCN=C=S` [GHP 1103], the EC (2-fold QR specific activity) came to 2.19 µM.

Turning to `CC(=O)CCCCN=C=S` [GHP 1105, 6-isothiocyanato-2-hexanone], the EC (2-fold QR specific activity) is 0.23 µM.

As to `CC(O)CCCCN=C=S` (stereo not shown) [GHP 1106, 6-isothiocyanato-2-hexanol], the EC (2-fold QR specific activity) was determined as 0.35 µM.

Still in this data set, the particulars now being: Mus musculus, Hepa-1c1c7, text; isolated (R)- and synthetic (R,S)-sulforaphane; read-out: CD values.
Turning to `C[S+]([O-])CCCCN=C=S` (racemic) [(R,S)-sulforaphane], the EC (2-fold QR specific activity) fell in the range of 0.2 to 0.4 µM.

Consider `C[S@@+]([O-])CCCCN=C=S` [(R)-sulforaphane], for which the EC (2-fold QR specific activity) fell in the range of 0.2 to 0.4 µM.

The same data set, now with this note: Table 3; QR induction, hepatoma cell assay of Example 1; read-out: CD.
As to `CS(=O)(=O)C1CC2CC1CC2N=C=S` (stereo not shown) [GHP 1064], the EC (2-fold QR specific activity) amounted to 0.66 µM.

`CC(=O)C1CC2CC1CC2N=C=S` (stereo not drawn) [GHP 1067, exo-2-acetyl-5-isothiocyanatonorbornane]: the EC (2-fold QR specific activity) stood at 0.43 µM.

The data set is the same for the next values; noted with them: in cell culture.
For `C[S+]([O-])CCCCCN=C=S` (stereo not shown) [Alyssin], the “activity as inducers compared with sulforaphane and sulforaphene” value is given as “less active”.

With `CSCCCCCN=C=S` [Berteroin], the “activity as inducers compared with sulforaphane and sulforaphene” value was “less active”.

For `CS(=O)(=O)CCCN=C=S` [Cheirolin], the “activity as inducers compared with sulforaphane and sulforaphene” value is given as “less active”.

Take `C[S+]([O-])CCCN=C=S` (stereo not shown) [Iberin]: the “activity as inducers compared with sulforaphane and sulforaphene” value is on record as “less active”.

As for `CSCCCN=C=S` [Iberverin], the “activity as inducers compared with sulforaphane and sulforaphene” value was “less active”.

The test system is the same in the next data set.
Assay: not given
Set-up: unit not given here. Particulars: footnote 3, reported value; cited from earlier work.
In the case of `S=C=NC1CCCCC1` [cyclohexylisothiocyanate], the “CD value (reported)” value is recorded as 14.

A further data set deals with Hepa 1c1c7 murine hepatoma cells.
Assay: not given
Particulars: Hepa 1c1c7 cells.
For `C[S+]([O-])CCCCN=C=S` (racemic) [(R,S)-sulforaphane], the cytotoxicity in words result was “relatively noncytotoxic”.

As for `C[S@@+]([O-])CCCCN=C=S` [(R)-sulforaphane], the cytotoxicity in words result is “relatively noncytotoxic”.
